Reference: patent publication US6362369B1, “Phthalic acid diamide derivatives fluorine-containing aniline compounds as starting material, agricultural and horticultural insecticides, and a method for application of the insecticides” (Nihon Nohyaku Co., Ltd., priority 1997, dated 2002)

Legend:
Type in all cases: in vivo
[1] = tested on: diamondback moth (Plutella xylostella); test: Insecticidal effect on diamondback moth (Test Example 1); conditions: for Insecticidal effect, Test Example 1 / Insecticidal effect (Test Example 1), judged from mortality: diamondback moth; for Insecticidal effect (Test Example 1), judged from mortality: judged by the criterion of Test Example 1; for Insecticidal effect on diamondback moth (Test Example 1), judged grade: mortality judged according to the criterion shown in Test Example 1
Procedure, shortened: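 Triplicate groups of 10 insects: eggs laid on Chinese cabbage seedling by adults, seedling immersed then air-dried, kept at 25° C. Day-6 hatch counts gave mortality, rated by criterion.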

[2] = tested on: common cutworm (Spodoptera Litura); test: Insecticidal effect on common cutworm (Test Example 2); conditions: 500 ppm, 25° C.; for Insecticidal effect, Test Example 2: cabbage leaf immersed; for Insecticidal effect, Test Example 2 / Insecticidal effect on common cutworm (Test Example 2), judged grade: eight days after inoculation; for Insecticidal effect (Test Example 2), judged from mortality / Insecticidal effect on common cutworm (Test Example 2), judged grade: cabbage leaf dip; for Insecticidal effect (Test Example 2), judged from mortality: 8 days after inoculation; for Insecticidal effect on common cutworm (Test Example 2), judged grade: second-instar larvae
Procedure, shortened: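 Mortality was scored 8 days post-inoculation, using three groups of 10 second-instar larvae kept at 25 °C in closed 9 cm dishes on air-dried treated material. The insecticidal effect was graded from calculated mortality by a set criterion.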

[3] = tested on: rice leafroller (Cnaphalocrocis medinalis); test: Insecticidal effect on rice leafroller (Test Example 3); conditions: 500 ppm, 25° C., humidity 70%; for Insecticidal effect, Test Example 3: rice lamina immersed; for Insecticidal effect, Test Example 3 / Insecticidal effect on rice leafroller (Test Example 3), judged grade: four days after inoculation; for Insecticidal effect (Test Example 3), judged from mortality / Insecticidal effect on rice leafroller (Test Example 3), judged grade: rice lamina dip; for Insecticidal effect (Test Example 3), judged from mortality: 4 days after inoculation; for Insecticidal effect on rice leafroller (Test Example 3), judged grade: third-instar larvae
Procedure, shortened: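 Insecticidal effect is judged by a predefined criterion from dead/alive counts four days after infesting air-dried lamina with third-instar larvae, kept on moistened filter paper at 25° C, 70% humidity.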

[4] = mortality judged by criterion of Test Example 1
[5] = common cutworm second-instar larvae
[6] = rice leafroller third-instar larvae
[7] = second-instar larvae of common cutworm
[8] = third-instar larvae of rice leafroller
[9] = judged by the mortality criterion of Test Example 1

Row | SMILES | Insecticidal effect, Test Example 1 [1, 4] | Insecticidal effect, Test Example 2 [2, 5] | Insecticidal effect, Test Example 3 [3, 6] | Insecticidal effect, Test Example 1 [1, 9] | Insecticidal effect, Test Example 2 [2, 7] | Insecticidal effect, Test Example 3 [3, 8] | other results
1 | CC(C)NC(=O)c1c(I)cccc1C(=O)Nc1ccc2c(c1)OC(F)(F)C(F)O2 (stereo not drawn) [compound 1164] | A (100) | A (100) | A (100) | – | – | – | –
2 | Cc1cc(OC(F)(F)C(F)F)ccc1NC(=O)c1cccc(Cl)c1C(=O)NC(C)(C)C [compound 1061] | A (100) | A (100) | A (100) | – | – | – | –
3 | Cc1cc(C(F)(F)C(F)(F)F)ccc1NC(=O)c1cccc(Cl)c1C(=O)N[C@H](C)CO [compound 1460] | – | – | – | – | – | – | Insecticidal effect (Test Example 1), judged from mortality [1]: A (100); Insecticidal effect (Test Example 2), judged from mortality [2, 7]: C (89-80); Insecticidal effect (Test Example 3), judged from mortality [3, 8]: A (100)
4 | Cc1cc(OC(F)F)ccc1NC(=O)c1c(Br)cccc1C(=O)NC(C)C [compound 325] | – | – | – | A (100) | A (100) | A (100) | –
5 | Cc1cc(Oc2ccc(C(F)(F)F)cn2)ccc1NC(=O)c1c(Cl)cccc1C(=O)NC(C)C [compound 249] | – | – | – | A (100) | D (79-50) | A (100) | –
6 | Cc1cc(Oc2ccc(C(F)(F)F)cn2)ccc1NC(=O)c1cccc(F)c1C(=O)NC(C)C [compound 523] | – | – | – | – | – | – | Insecticidal effect on diamondback moth (Test Example 1), judged grade [1]: A (100); Insecticidal effect on common cutworm (Test Example 2), judged grade [2]: A (100); Insecticidal effect on rice leafroller (Test Example 3), judged grade [3]: A (100)
7 | Cc1cc(OC(F)(F)C(F)(Cl)Cl)ccc1NC(=O)c1cccc(Cl)c1C(=O)NC(C)C [compound 145] | – | – | – | A (100) | A (100) | A (100) | –
8 | Cc1cc(Br)ccc1NC(=O)c1c(I)cccc1C(=O)NC(C)C [compound 430] | – | – | – | A (100) | D (79-50) | D (79-50) | –
9 | Cc1cc(C(F)(F)C(F)(F)F)ccc1NC(=O)c1cccc(Cl)c1C(=O)NC(C)(C)C [compound 932] | – | – | – | – | – | – | Insecticidal effect on diamondback moth (Test Example 1), judged grade [1]: A (100); Insecticidal effect on common cutworm (Test Example 2), judged grade [2]: A (100); Insecticidal effect on rice leafroller (Test Example 3), judged grade [3]: A (100)
10 | Cc1cc(OC(F)F)c(Cl)cc1NC(=O)c1cccc(Cl)c1C(=O)NC(C)C [compound 150] | – | – | – | A (100) | A (100) | A (100) | –
11 | CC(C)NC(=O)c1c(Cl)cccc1C(=O)Nc1ccc([S+]([O-])C(F)(F)F)cc1 (stereo not drawn) [compound 1001] | A (100) | A (100) | A (100) | – | – | – | –
12 | CC(C)(C)NC(=O)c1c(I)cccc1C(=O)Nc1ccc(C(F)(F)C(F)(F)F)cc1Cl [compound 1428] | A (100) | A (100) | A (100) | – | – | – | –
13 | CCCCNC(=O)c1c(I)cccc1C(=O)Nc1ccc(C(F)(F)C(F)(F)F)cc1C [compound 945] | A (100) | A (100) | A (100) | – | – | – | –
14 | Cc1cc(I)ccc1NC(=O)c1c(F)cccc1C(=O)NC(C)C [compound 547] | – | – | – | – | – | – | Insecticidal effect on diamondback moth (Test Example 1), judged grade [1]: A (100); Insecticidal effect on common cutworm (Test Example 2), judged grade [2]: A (100); Insecticidal effect on rice leafroller (Test Example 3), judged grade [3]: D (79-50)
15 | CCc1cc(C(F)(F)C(F)(F)F)ccc1NC(=O)c1cccc(Cl)c1C(=O)NC(C)CC (stereo not drawn) [compound 1501] | – | – | – | – | – | – | Insecticidal effect (Test Example 1), judged from mortality [1]: A (100); Insecticidal effect (Test Example 2), judged from mortality [2, 7]: A (100); Insecticidal effect (Test Example 3), judged from mortality [3, 8]: A (100)
16 | CC(C)(C)NC(=O)c1c(I)cccc1C(=O)Nc1ccc(SC(F)(F)F)cc1 [compound 1127] | A (100) | A (100) | A (100) | – | – | – | –

Row | SMILES | Insecticidal effect, Test Example 1 [1, 4] | Insecticidal effect, Test Example 2 [2, 5] | Insecticidal effect, Test Example 3 [3, 6] | Insecticidal effect, Test Example 1 [1, 9] | Insecticidal effect, Test Example 2 [2, 7] | Insecticidal effect, Test Example 3 [3, 8] | other results
17 | Cc1cc(Cl)ccc1NC(=O)c1ccccc1C(=O)NC(C)C [compound 50] | – | – | – | A (100) | A (100) | A (100) | –
18 | Cc1cc(OC(F)(F)F)ccc1NC(=O)c1cccc(I)c1C(=O)NC(C)(C)C [compound 957] | A (100) | A (100) | A (100) | – | – | – | –
19 | Cc1cc(OC(F)(F)C(F)F)c(Cl)cc1NC(=O)c1cccc(Cl)c1C(=O)NC(C)C [compound 152] | – | – | – | A (100) | A (100) | A (100) | –
20 | Cc1cc(Oc2ccc(C(F)(F)F)cn2)ccc1NC(=O)c1cccc(Br)c1C(=O)NC(C)C [compound 299] | – | – | – | A (100) | A (100) | A (100) | –
21 | Cc1cc(OC(F)(F)F)ccc1NC(=O)c1cccc(Cl)c1C(=O)NC(C)(C)C [compound 944] | A (100) | A (100) | A (100) | – | – | – | –
22 | Cc1cc(OC(F)(F)C(F)(Br)C(F)(F)F)ccc1NC(=O)c1cccc(I)c1C(=O)NC(C)C (stereo not drawn) [compound 394] | – | – | – | A (100) | A (100) | A (100) | –
23 | Cc1cc(OC(F)F)ccc1NC(=O)c1cccc(Cl)c1C(=O)NC(C)(C)C [compound 1019] | A (100) | A (100) | A (100) | – | – | – | –
24 | CC(C)NC(=O)c1c(I)cccc1C(=O)Nc1ccc2c(c1)OC(F)(F)C2(F)F [compound 974] | A (100) | A (100) | A (100) | – | – | – | –
25 | CCCCCNC(=O)c1c(I)cccc1C(=O)Nc1ccc(C(F)(F)C(F)(F)F)cc1C [compound 947] | A (100) | A (100) | A (100) | – | – | – | –
26 | Cc1c(Cl)cccc1NC(=O)c1cccc(Cl)c1C(=O)NC(C)C [compound 118] | – | – | – | A (100) | A (100) | A (100) | –
27 | Cc1cc(C#N)ccc1NC(=O)c1cccc(Cl)c1C(=O)NC(C)C [compound 1330] | A (100) | A (100) | A (100) | – | – | – | –
28 | Cc1cc(OC(F)(F)Br)ccc1NC(=O)c1cccc(F)c1C(=O)NC(C)C [compound 511] | – | – | – | – | – | – | Insecticidal effect on diamondback moth (Test Example 1), judged grade [1]: A (100); Insecticidal effect on common cutworm (Test Example 2), judged grade [2]: A (100); Insecticidal effect on rice leafroller (Test Example 3), judged grade [3]: A (100)
29 | CC(C)(C)NC(=O)c1c(Cl)cccc1C(=O)Nc1ccc2c(c1)OC(F)(F)O2 [compound 1104] | A (100) | A (100) | A (100) | – | – | – | –
30 | Cc1cc(I)ccc1NC(=O)c1cccc(F)c1C(=O)NC(C)C [compound 492] | – | – | – | – | – | – | Insecticidal effect on diamondback moth (Test Example 1), judged grade [1]: A (100); Insecticidal effect on common cutworm (Test Example 2), judged grade [2]: A (100); Insecticidal effect on rice leafroller (Test Example 3), judged grade [3]: A (100)
31 | CCN(CC)C(=O)c1c(I)cccc1C(=O)Nc1ccc(OC(F)(F)F)cc1F [compound 1190] | A (100) | A (100) | A (100) | – | – | – | –
32 | CC(C)NC(=O)c1c(I)cccc1C(=O)Nc1ccc(S(=O)(=O)C(F)(F)F)cc1 [compound 1079] | A (100) | A (100) | A (100) | – | – | – | –
